Two molecules from ChEMBL document CHEMBL5532697, “Imidazopyrimidine: from a relatively exotic scaffold to an evolving structural motif in drug discovery” (RSC Med Chem, 2024) can be followed below.

The term MIC denotes the least concentration at which growth counts as inhibited. The IC50 is the concentration at which inhibition is half-maximal.

Each structure is given as a SMILES string. Values after ≈ are worked out from the molar mass of the structure shown.

Experiment [1] concerns Kluyveromyces marxianus. In words: Antifungal activity against Candida keyfer […] 410004 assessed as inhibition of fungal growth incubated for 48 hrs. Format: functional.
For experiment [2], the system named is Kluyveromyces marxianus. In words: Synergetic antifungal activity against Candida keyfer […] 410004 assessed as fractional inhibitory concentration index incubated for 24 hrs in the presence of amphotericin B by checkerboard microdilution method. It counts as functional. On the technique in general: Dilution methods test growth across graded concentrations, often in twofold steps.

In a further experiment the test system is Candida albicans. In words: Antifungal activity against Candida albicans NCPF 400034 assessed as inhibition of fungal growth incubated for 48 hrs. It counts as functional.
The test system of the next experiment is Cryptococcus neoformans. In words: Antifungal activity against Cryptococcus neoformans NCPF 250316 assessed as inhibition of fungal growth incubated for 48 hrs. It counts as functional.
The subject of the next experiment is Neurospora crassa. The experiment can be described thus: Antifungal activity against Neurospora crassa assessed as inhibition of fungal growth incubated for 48 hrs. Format: functional.
The next experiment concerns Aspergillus niger. In words: Antifungal activity against Aspergillus niger assessed as inhibition of fungal growth incubated for 48 hrs. Format: functional.
The next experiment relates to HCT-116. The experiment can be described thus: Antiproliferative activity against human HCT-116 cells assessed as inhibition of cell growth incubated for 72 hrs by MTT assay. Format: functional, cell-based. Conditions: HCT-116, 72 h. A general note: Tetrazolium assays rely on reduction of a dye to a coloured formazan, in cell work by metabolically active cells.
In another experiment the test system is A549. In words: Antiproliferative activity against human A549 cells assessed as inhibition of cell growth incubated for 72 hrs by MTT assay. To be noted: A549, 72 h. Format: functional, cell-based.
Another experiment relates to CEM-DNR. The experiment can be described thus: Antiproliferative activity against human CEM-DNR cells assessed as inhibition of cell growth incubated for 72 hrs by MTT assay. Format: functional, cell-based.
The next experiment deals with CCRF-CEM. The experiment can be described thus: Antiproliferative activity against human CCRF-CEM cells assessed as inhibition of cell growth incubated for 72 hrs by MTT assay. It counts as functional, cell-based.
The test system of the next experiment is K562. In words: Antiproliferative activity against human K562 cells assessed as inhibition of cell growth incubated for 72 hrs by MTT assay. To be noted: K562, 72 h. Format: functional, cell-based.

With `c1ccc([Se]Cc2cn3cccnc3n2)cc1`, the MIC in the experiment with Kluyveromyces marxianus [1] was above 36 µg/mL; in the experiment with Candida albicans, 36 µg/mL (≈ 125 µM); with Cryptococcus neoformans, above 36 µg/mL; in the experiment with Neurospora crassa, 18 µg/mL (≈ 62.5 µM); with Aspergillus niger, above 36 µg/mL. Moreover, the “fractional inhibitory concentration index (FICI)” value in the experiment on Kluyveromyces marxianus [2] amounted to 3.6.

`N#Cc1ccc(-c2c[nH]c(=O)n3ccnc23)cc1`: the IC50 with HCT-116 came to 42.5 µM; in the experiment with A549 it was 5.07 µM; in the experiment with CEM-DNR, 18.8 µM; with CCRF-CEM it was 1.45 µM; in the experiment with K562, 17.7 µM.
